Source: US8017629B2, “Compounds and uses thereof in modulating amyloid β” (Neurogenetic Pharmaceuticals, Inc., priority 2003, dated 2011)
Read-outs that look alike come from different tables or passages of the source.

Experiments:
[1] = target: BACE Enzyme (Homo sapiens, UniProt P56817); assay: BACE Enzyme Potency (Table 12); assay type: biochemical
[2] = test system: Aβ42 levels in the extracellular medium; assay: FRET (HTRF) assay, Aβ42 level of the extracellular medium of SH-SY5Y-APP cells; assay type: cell-based; conditions: Homo sapiens, concentration at which reduction of Aβ42 level was half of the maximum reduction, read-out: Ab42 Potency
[3] = Table 12, class symbols, read-out: BACE Enzyme Potency

Sequence of BACE Enzyme (P56817 46-501, species assumed): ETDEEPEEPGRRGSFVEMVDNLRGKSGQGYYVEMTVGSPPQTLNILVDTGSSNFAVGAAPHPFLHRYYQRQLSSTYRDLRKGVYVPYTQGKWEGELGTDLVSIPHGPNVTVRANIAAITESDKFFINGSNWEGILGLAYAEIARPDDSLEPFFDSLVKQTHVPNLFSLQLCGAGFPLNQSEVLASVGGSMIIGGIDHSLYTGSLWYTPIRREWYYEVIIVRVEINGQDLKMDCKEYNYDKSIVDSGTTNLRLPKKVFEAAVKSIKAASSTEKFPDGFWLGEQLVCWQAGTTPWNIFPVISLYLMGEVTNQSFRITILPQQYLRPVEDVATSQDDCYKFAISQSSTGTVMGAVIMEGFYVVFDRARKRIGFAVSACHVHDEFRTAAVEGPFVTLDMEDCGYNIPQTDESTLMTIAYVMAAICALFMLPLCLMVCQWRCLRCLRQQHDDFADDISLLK

Molecule `CCN1CCN(c2ccc(-c3csc(Nc4ccc5c(c4)OCO5)n3)cc2)CC1` [Compound 375] has an IC50 [1, 3] of 1.1 to 5 µM.
Molecule `CSc1cccc(Nc2nc(-c3ccc(-n4ccnc4)cc3)cs2)c1` [Compound 371] has an IC50 [1, 3] of 0.2 to 1 µM.
In the case of `COc1cc(Nc2nc(-c3ccc(F)cc3)cs2)cc(OC)c1OC` [Compound 354], the IC50 [1, 3] is reported as 0.2 to 1 µM.
With `CN1CCN(c2ccc(-c3csc(Nc4ccc(Oc5ccccc5)cc4)n3)cc2)CC1` [Compound 369] the IC50 [1, 3] was < 0.2 µM.
Work on `CN1CCN(c2ccc(-c3csc(Nc4ccc(Cl)cc4)n3)cc2)CC1` [Compound 378] yielded an IC50 [1, 3] of 0.2 to 1 µM.
`COc1ccc(-c2csc(Nc3ccc(OC)c(OC)c3)n2)c(OC)c1` [Compound 353] gave an IC50 [1, 3] of 0.2 to 1 µM.
Work on `CCOC(=O)c1ccc(Nc2nc(-c3ccc(N4CCN(C)CC4)cc3)cs2)cc1` [Compound 382] yielded an IC50 [1, 3] of 0.2 to 1 µM.
With `COc1cccc(CNc2nc(-c3ccc(N4CCN(C)CC4)cc3)cs2)c1` [Compound 365] the IC50 [1, 3] was 5.1 to 10 µM.
With `CN1CCN(c2ccc(-c3csc(Nc4cccc5cccnc45)n3)cc2)CC1` [Compound 360] the IC50 [1, 3] was < 0.2 µM.
`COc1ccc(-c2csc(Nc3ccc4[nH]cnc4c3)n2)c(OC)c1` [Compound 374] was tested, and the IC50 [1, 3] was 0.2 to 1 µM.
Molecule `CCN(CC)c1ccc(Nc2nc(-c3ccc(-n4cnc(C)c4)cc3)cs2)c(C)c1` [Compound 380] has an IC50 [1, 3] of 1.1 to 5 µM.
For `CN1CCN(c2ccc(-c3csc(Nc4ccc(Cl)c(Cl)c4)n3)cc2)CC1` [Compound 366], the IC50 [1, 3] was < 0.2 µM.
For `COc1ccc(-c2csc(Nc3ccc(Br)cc3)n2)c(OC)c1` [Compound 362], the IC50 [1, 3] was 0.2 to 1 µM.
In the case of `c1cc(Nc2nc(-c3ccc4c(c3)OCO4)cs2)c2cn[nH]c2c1` [Compound 377], the IC50 [1, 3] is reported as 0.2 to 1 µM.
`CSc1cccc(Nc2nc(-c3ccc(N4CCN(C)CC4)cc3)cs2)c1` [Compound 372] gave an IC50 [1, 3] of 0.2 to 1 µM.
With `CN1CCN(c2ccc(-c3csc(Nc4ccc5[nH]ncc5c4)n3)cc2)CC1` [Compound 368] the IC50 [1, 3] was 1.1 to 5 µM.
Molecule `CC(C)N(c1ccccc1)c1ccc(Nc2nc(-c3ccc(-n4ccnc4)cc3)cs2)cc1` [Compound 373] has an IC50 [1, 3] of 0.2 to 1 µM.
`CN1CCN(c2ccc(-c3csc(Nc4cccc(Cl)c4)n3)cc2)CC1` [Compound 376] was tested, and the IC50 [1, 3] was 0.2 to 1 µM.
`CN1CCN(c2ccc(-c3csc(Nc4ccc5c(cnn5C)c4)n3)cc2)CC1` [Compound 367] was tested, and the IC50 [1, 3] was 1.1 to 5 µM.
In the case of `COc1cc(Nc2nc(-c3ccc(N4CCN(C)CC4)cc3)cs2)cc(OC)c1OC` [Compound 356], the IC50 [1, 3] is reported as 0.2 to 1 µM.
Work on `c1cn(-c2ccc(-c3csc(Nc4ccc5[nH]ccc5c4)n3)cc2)cn1` [Compound 370] yielded an IC50 [1, 3] of 0.2 to 1 µM.
Work on `CCc1ccc(Nc2nc(-c3ccc(N4CCCC4)cc3)cs2)cc1` [Compound 363] yielded an IC50 [1, 3] of 0.2 to 1 µM.
For `CN1CCN(c2ccc(-c3csc(Nc4ccc5c(c4)OCCO5)n3)cc2)CC1` [Compound 364], the IC50 [1, 3] was < 0.2 µM.
In the case of `CN1CCN(c2ccc(-c3csc(Nc4ccc5c(c4)OCO5)n3)cc2)CC1` [Compound 357], the IC50 [1, 3] is reported as 0.2 to 1 µM.
For `COc1ccc(-c2csc(Nc3ccc(N(C)C)cc3)n2)c(OC)c1` [Compound 355], the IC50 [1] was 1.1 to 5 µM.
`CCN(c1ccc(N2CCOCC2)cc1)c1nc(-c2ccc(-n3ccnc3)cc2)cs1` [Compound 381] was tested, and the IC50 [1, 3] was 5.1 to 10 µM.
With `CSc1cccc(Nc2nc(-c3ccc(N4CCCC4)cc3)cs2)c1` [Compound 379] the IC50 [1, 3] was 0.2 to 1 µM.
For `CN1CCN(c2ccc(-c3csc(Nc4ccc5ccccc5c4)n3)cc2)CC1` [Compound 359], the IC50 [1, 3] was 0.2 to 1 µM.
In the case of `CN1CCN(c2ccc(-c3csc(Nc4ccc(N(C)C)cc4)n3)cc2)CC1` [Compound 358], the IC50 [1, 3] is reported as 0.2 to 1 µM.
With `COc1ccc(Nc2nc(-c3ccc(-n4ccnc4)cc3)co2)cc1` [Compound 340] the EC50 [2] was 1.1 to 5 µM.
`COc1cc(C)c(Nc2nc(-c3ccc(-n4ccnc4)cc3)cs2)cc1C(C)C` [Compound 294] was tested, and the EC50 [2] was < 0.2 µM.
Molecule `Brc1ccc(Nc2nc(-c3ccc(N4CCCC4)cc3)cs2)cc1` [Compound 361] has an IC50 [1, 3] of 0.2 to 1 µM.
With `Cc1cn(-c2ccc(-c3csc(Nc4cc(-n5cccc5)ccc4C)n3)cc2)cn1` [Compound 293] the EC50 [2] was 0.2 to 1 µM.
With `CCN(CC1CC1)c1cc(Nc2nc(-c3ccc(-n4cnc(C)c4)cc3)cs2)c(C)cc1C` [Compound 350] the EC50 [2] was < 0.2 µM.
Molecule `Cc1cn(-c2ccc(-c3csc(Nc4c(Cl)cc(Cl)cc4Cl)n3)cc2)cn1` [Compound 238] has an EC50 [2] of 1.1 to 5 µM.
Molecule `CCCN(c1ccc2c(c1)OCO2)c1nc(-c2ccc(N3CCN(C)CC3)cc2)cs1` [Compound 163] has an EC50 [2] of 5.1 to 10 µM.
With `CCc1cc(N2CCN(C)CC2)ccc1Nc1nc(-c2ccc(-n3ccnc3)cc2)cs1` [Compound 240] the EC50 [2] was 1.1 to 5 µM.
For `CCN(CCO)c1ccc(Nc2nc(-c3ccc(-n4cnc(C)c4)cc3C(F)(F)F)c(C)s2)c(C)c1` [Compound 206], the EC50 [2] was 5.1 to 10 µM.
In the case of `Cc1cn(-c2ccc(-c3csc(Nc4cc(N(C)CC5CC5)ccc4C)n3)cc2F)cn1` [Compound 315], the EC50 [2] is reported as < 0.2 µM.
